Key:
Assay in all cases: KINOMEscan competition binding
Settings in all cases: compound 10.0 µM
[1] = target: PTK6 (human) (UniProt Q13882)
[2] = target: CHUK (human) (UniProt O15111)
[3] = target: PDGFRB (human) (UniProt P09619)
[4] = target: CDK9 (human) (UniProt P50750)
[5] = target: STK36 (human) (UniProt Q9NRP7)
[6] = target: PTK2 (human) (UniProt Q05397)
[7] = target: TAOK3 (human) (UniProt Q9H2K8)
[8] = target: CDC42BPG (human) (UniProt Q6DT37)
[9] = target: CDK19 (human) (UniProt Q9BWU1)
[10] = target: DCLK2 (human) (UniProt Q8N568)
[11] = target: TTK (human) (UniProt P33981)
[12] = target: PIK3CA (human) (UniProt P42336)
[13] = target: CDKL3 (human) (UniProt Q8IVW4)
[14] = target: HIPK4 (human) (UniProt Q8NE63)
[15] = target: LCK (human) (UniProt P06239)
[16] = target: STK17B (human) (UniProt O94768)
[17] = target: MAP2K3 (human) (UniProt P46734)
[18] = target: MYLK2 (human) (UniProt Q9H1R3)
[19] = target: TBK1 (human) (UniProt Q9UHD2)
[20] = target: ZAP70 (human) (UniProt P43403)
[21] = target: RPS6KA5 KD1 (human) (UniProt O75582)
[22] = target: MST4 (human) (UniProt Q9P289)
[23] = target: EPHA4 (human) (UniProt P54764)
[24] = target: PIM3 (human) (UniProt Q86V86)
[25] = target: PDPK1 (human) (UniProt O15530)
[26] = target: CSNK1D (human) (UniProt P48730)
[27] = target: RPS6KA2 KD1 (human) (UniProt Q15349)
[28] = target: CLK1 (human) (UniProt P49759)
[29] = target: CSNK1G1 (human) (UniProt Q9HCP0)
[30] = target: MAP3K5 (human) (UniProt Q99683)
[31] = target: PIK3CB (human) (UniProt P42338)
[32] = target: PIK3CG (human) (UniProt P48736)
[33] = target: CDK15 (human) (UniProt Q96Q40)
[34] = target: CDKL5 (human) (UniProt O76039)
[35] = target: MAPK6 (human) (UniProt Q16659)

Sequence of ZAP70 (human) (P43403 whole entry, looked up): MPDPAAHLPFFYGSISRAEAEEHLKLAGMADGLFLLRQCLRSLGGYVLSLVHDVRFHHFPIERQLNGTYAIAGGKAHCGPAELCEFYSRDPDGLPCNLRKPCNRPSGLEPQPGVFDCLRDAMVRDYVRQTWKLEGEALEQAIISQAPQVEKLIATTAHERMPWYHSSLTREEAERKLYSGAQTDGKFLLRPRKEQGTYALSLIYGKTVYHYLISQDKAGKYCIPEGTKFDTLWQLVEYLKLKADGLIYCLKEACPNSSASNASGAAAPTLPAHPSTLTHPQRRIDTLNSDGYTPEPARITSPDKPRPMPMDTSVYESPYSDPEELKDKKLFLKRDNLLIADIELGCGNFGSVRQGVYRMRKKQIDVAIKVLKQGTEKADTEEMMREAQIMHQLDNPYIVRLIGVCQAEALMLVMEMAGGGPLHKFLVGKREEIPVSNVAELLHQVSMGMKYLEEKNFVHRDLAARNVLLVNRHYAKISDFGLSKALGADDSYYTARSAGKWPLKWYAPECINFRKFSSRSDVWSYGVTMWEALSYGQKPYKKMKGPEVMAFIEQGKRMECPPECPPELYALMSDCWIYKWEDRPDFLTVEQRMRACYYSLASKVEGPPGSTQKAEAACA
Sequence of TAOK3 (human) (Q9H2K8 whole entry, looked up): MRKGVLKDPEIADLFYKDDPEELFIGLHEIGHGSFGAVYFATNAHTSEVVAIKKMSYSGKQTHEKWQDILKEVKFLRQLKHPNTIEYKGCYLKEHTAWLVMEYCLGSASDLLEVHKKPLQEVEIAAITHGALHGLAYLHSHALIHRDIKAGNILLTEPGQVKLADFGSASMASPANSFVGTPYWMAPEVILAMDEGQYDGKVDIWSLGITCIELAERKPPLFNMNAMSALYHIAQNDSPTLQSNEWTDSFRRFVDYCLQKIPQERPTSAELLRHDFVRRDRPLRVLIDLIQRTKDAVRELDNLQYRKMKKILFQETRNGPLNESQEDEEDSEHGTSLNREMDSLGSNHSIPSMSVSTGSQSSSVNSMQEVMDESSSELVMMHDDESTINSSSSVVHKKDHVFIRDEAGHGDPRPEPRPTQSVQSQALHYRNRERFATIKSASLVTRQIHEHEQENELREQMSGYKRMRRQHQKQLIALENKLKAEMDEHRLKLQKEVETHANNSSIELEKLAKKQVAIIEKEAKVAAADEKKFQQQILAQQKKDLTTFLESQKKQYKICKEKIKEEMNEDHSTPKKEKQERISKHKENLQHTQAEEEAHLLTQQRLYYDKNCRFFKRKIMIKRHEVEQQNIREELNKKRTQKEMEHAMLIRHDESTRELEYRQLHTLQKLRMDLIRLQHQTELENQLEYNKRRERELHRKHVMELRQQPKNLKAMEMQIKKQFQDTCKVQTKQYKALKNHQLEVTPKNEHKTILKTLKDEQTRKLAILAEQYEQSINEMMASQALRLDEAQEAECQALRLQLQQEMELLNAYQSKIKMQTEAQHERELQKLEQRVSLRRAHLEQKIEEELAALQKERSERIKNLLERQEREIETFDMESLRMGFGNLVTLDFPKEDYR
Sequence of CSNK1G1 (human) (Q9HCP0 whole entry, looked up): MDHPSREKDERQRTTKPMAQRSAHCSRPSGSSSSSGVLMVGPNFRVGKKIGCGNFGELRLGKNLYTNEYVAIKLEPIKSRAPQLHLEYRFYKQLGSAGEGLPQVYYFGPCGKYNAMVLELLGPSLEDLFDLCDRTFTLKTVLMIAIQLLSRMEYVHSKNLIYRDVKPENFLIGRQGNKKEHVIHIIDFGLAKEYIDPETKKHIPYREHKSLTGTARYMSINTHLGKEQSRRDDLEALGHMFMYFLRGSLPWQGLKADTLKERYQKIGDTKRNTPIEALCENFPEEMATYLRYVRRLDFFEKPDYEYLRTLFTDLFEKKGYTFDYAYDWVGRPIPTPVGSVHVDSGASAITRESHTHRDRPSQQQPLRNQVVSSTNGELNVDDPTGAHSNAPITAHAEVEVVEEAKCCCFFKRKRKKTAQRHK
Sequence of PDGFRB (human) (P09619 whole entry, looked up): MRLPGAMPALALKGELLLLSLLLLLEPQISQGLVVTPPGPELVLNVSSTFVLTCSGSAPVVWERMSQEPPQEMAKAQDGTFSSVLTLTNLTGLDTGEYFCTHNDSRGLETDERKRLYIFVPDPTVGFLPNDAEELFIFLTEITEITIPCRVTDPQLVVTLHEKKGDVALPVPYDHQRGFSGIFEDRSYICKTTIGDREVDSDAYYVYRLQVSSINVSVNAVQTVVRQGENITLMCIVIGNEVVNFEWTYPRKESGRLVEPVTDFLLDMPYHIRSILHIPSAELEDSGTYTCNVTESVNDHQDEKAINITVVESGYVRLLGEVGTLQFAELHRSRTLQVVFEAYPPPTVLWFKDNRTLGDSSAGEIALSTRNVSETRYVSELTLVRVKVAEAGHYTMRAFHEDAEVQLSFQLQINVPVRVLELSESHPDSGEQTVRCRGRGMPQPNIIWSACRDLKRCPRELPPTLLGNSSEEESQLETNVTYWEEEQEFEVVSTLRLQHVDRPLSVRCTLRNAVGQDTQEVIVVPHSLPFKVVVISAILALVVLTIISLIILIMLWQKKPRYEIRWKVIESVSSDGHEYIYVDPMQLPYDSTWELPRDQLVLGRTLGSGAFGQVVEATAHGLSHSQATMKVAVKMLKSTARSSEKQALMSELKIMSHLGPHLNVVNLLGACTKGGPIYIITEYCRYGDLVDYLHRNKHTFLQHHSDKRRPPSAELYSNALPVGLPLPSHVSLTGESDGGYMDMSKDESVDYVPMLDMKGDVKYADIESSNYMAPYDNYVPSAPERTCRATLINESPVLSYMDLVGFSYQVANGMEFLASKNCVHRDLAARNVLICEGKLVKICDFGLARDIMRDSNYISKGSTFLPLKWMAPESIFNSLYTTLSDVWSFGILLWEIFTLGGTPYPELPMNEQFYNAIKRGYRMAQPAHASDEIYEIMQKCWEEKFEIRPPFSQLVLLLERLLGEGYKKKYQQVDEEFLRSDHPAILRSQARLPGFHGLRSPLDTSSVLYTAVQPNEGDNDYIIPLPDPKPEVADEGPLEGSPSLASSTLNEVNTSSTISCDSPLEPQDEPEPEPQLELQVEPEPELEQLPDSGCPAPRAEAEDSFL
Sequence of STK17B (human) (O94768 whole entry, looked up): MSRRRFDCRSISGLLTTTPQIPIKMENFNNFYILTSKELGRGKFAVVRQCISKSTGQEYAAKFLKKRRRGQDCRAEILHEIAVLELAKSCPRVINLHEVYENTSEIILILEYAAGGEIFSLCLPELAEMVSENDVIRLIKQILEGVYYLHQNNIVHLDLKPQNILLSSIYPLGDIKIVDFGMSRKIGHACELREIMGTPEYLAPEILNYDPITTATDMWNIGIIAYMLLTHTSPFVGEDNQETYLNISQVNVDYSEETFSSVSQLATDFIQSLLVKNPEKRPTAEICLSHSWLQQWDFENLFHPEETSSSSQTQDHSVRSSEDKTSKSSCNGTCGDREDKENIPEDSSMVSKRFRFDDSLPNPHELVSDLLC
Sequence of PDPK1 (human) (O15530 whole entry, looked up): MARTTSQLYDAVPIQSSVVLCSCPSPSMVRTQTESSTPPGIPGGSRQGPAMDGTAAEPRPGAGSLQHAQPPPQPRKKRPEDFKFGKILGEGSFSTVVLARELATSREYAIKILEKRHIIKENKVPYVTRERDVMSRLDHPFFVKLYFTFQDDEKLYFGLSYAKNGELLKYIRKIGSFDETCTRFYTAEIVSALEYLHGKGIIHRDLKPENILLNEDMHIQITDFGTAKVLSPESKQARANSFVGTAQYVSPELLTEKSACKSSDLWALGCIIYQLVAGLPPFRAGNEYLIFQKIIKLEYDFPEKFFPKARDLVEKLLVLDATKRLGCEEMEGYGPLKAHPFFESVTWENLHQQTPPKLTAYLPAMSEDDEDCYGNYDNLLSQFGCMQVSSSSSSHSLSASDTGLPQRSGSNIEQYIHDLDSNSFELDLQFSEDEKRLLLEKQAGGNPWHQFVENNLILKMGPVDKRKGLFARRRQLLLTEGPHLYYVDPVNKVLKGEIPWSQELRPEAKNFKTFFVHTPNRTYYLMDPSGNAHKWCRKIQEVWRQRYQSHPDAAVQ
Sequence of MYLK2 (human) (Q9H1R3 whole entry, looked up): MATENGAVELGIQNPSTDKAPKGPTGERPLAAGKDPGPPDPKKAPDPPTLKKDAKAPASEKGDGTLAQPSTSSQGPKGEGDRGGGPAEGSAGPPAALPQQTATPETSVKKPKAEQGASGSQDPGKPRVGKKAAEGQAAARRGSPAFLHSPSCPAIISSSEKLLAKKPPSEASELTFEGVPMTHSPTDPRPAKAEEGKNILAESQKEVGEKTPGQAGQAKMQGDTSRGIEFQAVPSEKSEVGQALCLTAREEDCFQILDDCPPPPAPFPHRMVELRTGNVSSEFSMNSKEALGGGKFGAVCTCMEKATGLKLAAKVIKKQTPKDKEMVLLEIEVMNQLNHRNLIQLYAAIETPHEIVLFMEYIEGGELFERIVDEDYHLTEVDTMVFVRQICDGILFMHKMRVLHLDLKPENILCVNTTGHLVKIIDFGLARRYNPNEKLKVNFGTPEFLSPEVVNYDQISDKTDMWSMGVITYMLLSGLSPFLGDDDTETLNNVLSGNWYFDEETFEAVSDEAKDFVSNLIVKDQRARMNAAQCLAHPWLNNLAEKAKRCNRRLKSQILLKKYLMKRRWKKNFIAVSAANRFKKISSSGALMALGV
Sequence of CDK15 (human) (Q96Q40 whole entry, looked up): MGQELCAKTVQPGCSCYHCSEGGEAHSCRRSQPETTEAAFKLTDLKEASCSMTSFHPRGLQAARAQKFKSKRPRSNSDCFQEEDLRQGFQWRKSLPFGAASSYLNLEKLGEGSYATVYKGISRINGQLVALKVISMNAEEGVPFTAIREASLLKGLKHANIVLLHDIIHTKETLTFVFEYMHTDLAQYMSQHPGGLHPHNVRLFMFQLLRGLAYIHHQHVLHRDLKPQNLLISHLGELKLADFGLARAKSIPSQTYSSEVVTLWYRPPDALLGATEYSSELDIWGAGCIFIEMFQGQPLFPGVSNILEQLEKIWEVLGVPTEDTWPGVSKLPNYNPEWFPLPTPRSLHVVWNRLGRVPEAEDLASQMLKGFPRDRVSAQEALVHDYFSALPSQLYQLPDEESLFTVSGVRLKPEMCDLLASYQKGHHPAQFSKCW

Row | SMILES | kinase still bound, per cent of control [1] | kinase still bound, per cent of control [2] | kinase still bound, per cent of control [3] | kinase still bound, per cent of control [4] | kinase still bound, per cent of control [5] | kinase still bound, per cent of control [6] | kinase still bound, per cent of control [7] | kinase still bound, per cent of control [8] | kinase still bound, per cent of control [9] | kinase still bound, per cent of control [10] | kinase still bound, per cent of control [11] | kinase still bound, per cent of control [12] | kinase still bound, per cent of control [15] | kinase still bound, per cent of control [16] | kinase still bound, per cent of control [17] | kinase still bound, per cent of control [18] | kinase still bound, per cent of control [20] | kinase still bound, per cent of control [21] | kinase still bound, per cent of control [22] | kinase still bound, per cent of control [23] | further results
1 | Cc1cn(-c2cc(C(=O)Nc3ccc(C)c(NC(=O)c4ccno4)c3)cc(C(F)(F)F)c2)cn1 | 24% | 100% | 0% | 100% | 100% | 100% | 100% | 100% | 100% | 100% | 100% | 100% | 4% | 100% | 100% | 100% | 100% | 100% | 100% | 4% | kinase still bound, per cent of control [13]: 100%; kinase still bound, per cent of control [14]: 100%; kinase still bound, per cent of control [19]: 100%; kinase still bound, per cent of control [24]: 100%; kinase still bound, per cent of control [25]: 100%; kinase still bound, per cent of control [26]: 100%; kinase still bound, per cent of control [27]: 100%; kinase still bound, per cent of control [28]: 100%; kinase still bound, per cent of control [29]: 100%; kinase still bound, per cent of control [30]: 100%; kinase still bound, per cent of control [31]: 100%; kinase still bound, per cent of control [32]: 100%; kinase still bound, per cent of control [33]: 100%; kinase still bound, per cent of control [34]: 100%; kinase still bound, per cent of control [35]: 100%
2 | CCOc1cc(N2CCC(O)CC2)ccc1Nc1ncc2c(n1)N(C)c1ccccc1C(=O)N2C | 100% | 100% | 100% | 100% | 100% | 100% | 100% | 100% | 100% | 0.65% | 19% | 100% | 100% | 100% | 100% | 100% | 100% | 100% | 100% | 100% | kinase still bound, per cent of control [13]: 100%; kinase still bound, per cent of control [14]: 100%; kinase still bound, per cent of control [19]: 100%; kinase still bound, per cent of control [24]: 100%; kinase still bound, per cent of control [25]: 100%; kinase still bound, per cent of control [26]: 100%; kinase still bound, per cent of control [27]: 100%; kinase still bound, per cent of control [28]: 100%; kinase still bound, per cent of control [29]: 100%; kinase still bound, per cent of control [30]: 100%; kinase still bound, per cent of control [31]: 100%; kinase still bound, per cent of control [32]: 100%; kinase still bound, per cent of control [33]: 100%; kinase still bound, per cent of control [34]: 100%; kinase still bound, per cent of control [35]: 100%
3 | COc1cc(C)c(Sc2cnc(NC(=O)c3ccc(CNC(C)C(C)C)cc3)s2)cc1C(=O)N1CCN(C(C)=O)CC1 (stereo unspecified) | 100% | 100% | 100% | 100% | 100% | 100% | 3.6% | 100% | 100% | 100% | 100% | 100% | 6.2% | 100% | 100% | 100% | 100% | 100% | 100% | 100% | kinase still bound, per cent of control [24]: 100%; kinase still bound, per cent of control [25]: 100%; kinase still bound, per cent of control [26]: 100%; kinase still bound, per cent of control [27]: 100%; kinase still bound, per cent of control [28]: 4.9%; kinase still bound, per cent of control [29]: 100%; kinase still bound, per cent of control [30]: 100%; kinase still bound, per cent of control [31]: 100%; kinase still bound, per cent of control [32]: 100%; kinase still bound, per cent of control [33]: 100%; kinase still bound, per cent of control [35]: 100%
